From US20180015080A1, “COMPOSITIONS AND METHODS FOR TREATMENT IN PARKINSON'S DISEASE PATIENTS” (priority 2013, published 2018)

Experiments:
[1] = cited from earlier work
PD patients with LIDS = conditions: patients with idiopathic PD and LIDS, one oral dosage per day, 4 mg/day escalated to 24 mg/day
From the text: Patients with idiopathic PD and LIDS are enrolled in a clinical study. […] The patient population in this study is typical of those patients with LIDS. Upon randomization of patients for receiving study agent or placebo, there are no statistically significant differences in baseline parameters between the 2 groups.
The study consists of 3 phases: a treatment period, a drug taper period, and a follow-up period. Subjects are randomly assigned to receive either a nicotine salt or placebo (pbo). Treatment is with one oral dosage per day containing a nicotine salt or placebo. […]
Safety is assessed by incidences of adverse experiences (AE), clinical laboratory tests, serum cotinine, ECG and vital signs. Impulsive symptoms are assessed using the Jay Modified Minnesota Impulsive Disorders Interview (JayMidi). Withdrawal symptoms are evaluated using the Minnesota Nicotine Withdrawal Scale (MNWS-R).
Efficacy is assessed using the UPDRS (total of Parts II+III+IV), sum of Q32+Q33, Unified Dyskiensia Rating Scale (UDysRS) total scores and subscores, Lang-Fahn Dyskinesia Acitivties of Daily Living Scale (LF-ADL), CGI-C and PGI-C scales, and responder analyses (subjects with >25% improvement from baseline) on UDysRS total score and LF-ADL, and % subjects with any improvement on PGI-C and CGI-C. […]

SMILES	solubility in water [1]	adverse experiences (AE) (PD patients with LIDS)	improvement on patient- and physician-rated outcome measures (UPDRS, UDysRS, LF-ADL, CGI-C, PGI-C) compared to pbo (PD patients with LIDS; majority of outcome measures)
N[C@@H](Cc1ccc(O)c(O)c1)C(=O)O [Levodopa, L-3,4-dihydroxyphenylalanine (S)-2-amino-3-(3,4-dihydroxyphenyl)propanoic acid]	slightly soluble		
CN1CCC[C@H]1c1cccnc1 [nicotine, 3-[(2S)-1-methylpyrrolidin-2-yl]pyridine]		no unexpected AEs occur	trend towards statistically significant improvement
